Results: patent US20240350579A1 (priority 2020, published 2024)

Columns and labels:
[1] = tested on: P. aeruginosa; test: Antibacterial assay of PEPXR hydrogels; format: cell-based
Description: (§1) Thus, the peptide hydrogels described herein may generally comprise a high content of positively charged arginine (R) amino acids.
The peptide hydrogel is believed to directly lyse bacterial membranes indiscriminately. […] The mechanism additionally makes it more difficult for the treated microorganisms to gain antibiotic resistance.

[2] = tested on: E. coli; test: Antibacterial assay of PEPXR hydrogels; format: cell-based
Description: as §1

[3] = tested on: S. aureus; test: Antibacterial assay of PEPXR hydrogels; format: cell-based
Description: as §1

[4] = Net peptide charge and isoelectric point; format: physicochemical; conditions: pH 7
Description: The peptide may be purified. For example, the peptide may be lyophilized. […] Other peptides are within the scope of the disclosure.
Exemplary peptides having a charge of +5 to +9 include […](d)[…], […](d)[…], and […](d)[…]. In other embodiments, the purified peptide may be substantially neutral. […] Net charge may be selected by peptide design. Design of electrostatic charge in the peptide hydrogel may allow control of charge interaction with cell membrane and proteins.

Row | Substance | antimicrobial activity (in words) [1] | antimicrobial activity (in words) [2] | antimicrobial activity (in words) [3] | net charge [4]
1 | VKVRVRVRVPPTRVRVRVKV [PEP6R] | potent antimicrobial activity | potent antimicrobial activity | potent antimicrobial activity | –
2 | VEVSVSVEV(d)PPTEVSVEVEV | – | – | – | net negative charge
